Results published in patent publication US20250320213A1, “Nitrogen-Containing Heterocyclic Compounds” (Pfizer Inc., priority 2024, published 2025).
pEC50, pIC50: −log10 of the molar value.

Tests used:
[1] = molecular target: T1, STAT6 (Homo sapiens, UniProt P42226); assay: STAT6 Reporter Luciferase Assay (IL-13 stimulated HaCaT keratinocyte NanoLuc reporter cells); assay type: cell-based; conditions: IL-13 stimulated HaCaT STAT6 NanoLuc reporter cells; read-out: Reporter EC50
T1 construct: stably transfected HaCaT keratinocyte cell line, which expresses NanoLuc luciferase reporter gene under the transcriptional control of the STAT6 responsive promoter; endogenous in cells; host or cells: HaCaT keratinocyte reporter cell line (stably transfected with a NanoLuc reporter)
T1 sequence (P42226 1-847): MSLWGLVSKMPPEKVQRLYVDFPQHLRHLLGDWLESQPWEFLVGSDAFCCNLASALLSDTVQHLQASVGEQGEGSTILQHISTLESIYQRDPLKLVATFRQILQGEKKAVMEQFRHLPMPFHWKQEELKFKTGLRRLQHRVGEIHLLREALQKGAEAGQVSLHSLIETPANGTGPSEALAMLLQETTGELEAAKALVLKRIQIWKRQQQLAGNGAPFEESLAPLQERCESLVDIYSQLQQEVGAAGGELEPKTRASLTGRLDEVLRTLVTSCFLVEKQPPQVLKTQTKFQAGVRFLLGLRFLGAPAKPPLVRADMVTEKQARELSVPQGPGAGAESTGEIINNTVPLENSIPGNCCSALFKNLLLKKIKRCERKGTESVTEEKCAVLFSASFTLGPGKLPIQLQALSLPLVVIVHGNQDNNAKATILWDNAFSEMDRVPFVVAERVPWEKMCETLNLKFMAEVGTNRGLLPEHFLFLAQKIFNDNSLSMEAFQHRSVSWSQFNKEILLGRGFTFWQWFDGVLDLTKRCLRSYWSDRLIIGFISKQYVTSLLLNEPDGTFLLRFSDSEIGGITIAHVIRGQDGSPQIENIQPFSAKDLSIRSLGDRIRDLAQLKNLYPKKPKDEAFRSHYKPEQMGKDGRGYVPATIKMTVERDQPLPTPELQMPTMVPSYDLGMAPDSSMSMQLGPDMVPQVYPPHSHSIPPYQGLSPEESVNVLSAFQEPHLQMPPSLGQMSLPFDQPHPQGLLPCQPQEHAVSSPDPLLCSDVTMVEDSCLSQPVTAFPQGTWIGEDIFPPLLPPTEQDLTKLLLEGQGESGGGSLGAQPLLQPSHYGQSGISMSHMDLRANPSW
In short: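 HaCaT IL-13Ra2-promoter NanoLuc reporter; cpd 2 h 37 °C in DMEM/2% HI FBS; IL-13 0.12 nM final, 4 h; Nano-Glo luminescence.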

[2] = tested on: CCL17 secretion in peripheral human whole blood; assay: Human Whole Blood (HWB) CCL17 TR-FRET Assay (IL-13 stimulated CCL17 secretion); assay type: cell-based; conditions: human whole blood
In short: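 Heparinized peripheral human whole blood was preincubated with compound (11-point, 3-fold series, duplicate) for 2 h at 37 °C, then stimulated with IL-13 at 10 ng/mL final for 48 h at 37 °C. Secreted CCL17 in the serum was quantified by TR-FRET sandwich immunoassay (665/615 nm ratio, 16 h RT); IC50 derived.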

[3] = Homo sapiens, 48 h, IL-13 10 ng/mL

| Molecule | pEC50 [1] | pIC50 [2, 3] | pIC50 ([2]; IL-13 stimulated, 48 hours) |
| --- | --- | --- | --- |
| CC(C)n1nc(C(=O)NCc2ccc(NC(=O)C3CCN(C)CC3)c(F)c2)c2c1[C@@H](C)CN(c1ccc(C(=O)N(C)C)cc1)C2 [Example 721, (S)-5-(4-(dimethylcarbamoyl)phenyl)-N-(3-fluoro-4-(1-methylpiperidine-4-carboxamido)benzyl)-1-isopropyl-7-methyl-4,5,6,7-tetrahydro-1H-pyrazolo[4,3-c]pyridine-3-carboxamide] | 7.92 | 6.99 |  |
| CN[C@@H]1CCN(C(=O)Nc2ccc(CNC(=O)c3nn(C(C)C)c4c3CN(c3ccc(C(=O)N(C)C)cc3)C[C@@H]4C)cc2)C1 [Example 722, (S)-5-(4-(dimethylcarbamoyl)phenyl)-1-isopropyl-7-methyl-N-(4-((R)-3-(methylamino)pyrrolidine-1-carboxamido)benzyl)-4,5,6,7-tetrahydro-1H-pyrazolo[4,3-c]pyridine-3-carboxamide] | 8.10 | 7.40 |  |
| Cc1cncc(-c2ccc(CNC(=O)c3nn(C(C)C)c4c3CN(c3ccc(C(=O)N(C)C)cc3)C[C@H]4C)cc2)n1 [Example 724, (R)-5-(4-(dimethylcarbamoyl)phenyl)-1-isopropyl-7-methyl-N-(4-(6-methylpyrazin-2-yl)benzyl)-4,5,6,7-tetrahydro-1H-pyrazolo[4,3-c]pyridine-3-carboxamide] | 6.89 | 5.30 |  |
| CC(C)n1nc(C(=O)NCc2ccc(-c3ccn(C)n3)cc2)c2c1[C@@H](C)CN(c1ccc(C(=O)N(C)C)cc1)C2 [Example 725, (S)-5-(4-(dimethylcarbamoyl)phenyl)-1-isopropyl-7-methyl-N-(4-(1-methyl-1H-pyrazol-3-yl)benzyl)-4,5,6,7-tetrahydro-1H-pyrazolo[4,3-c]pyridine-3-carboxamide] | 6.75 | 5.35 |  |
| Cc1ccc(-c2ccc(CNC(=O)c3nn(C(C)C)c4c3CN(c3ccc(C(=O)N(C)C)cc3)C[C@@H]4C)cc2)nn1 [Example 727, (S)-5-(4-(dimethylcarbamoyl)phenyl)-1-isopropyl-7-methyl-N-(4-(6-methylpyridazin-3-yl)benzyl)-4,5,6,7-tetrahydro-1H-pyrazolo[4,3-c]pyridine-3-carboxamide] | 7.96 | 6.42 |  |
| COc1nc(-c2ccc(CNC(=O)c3nn(C(C)C)c4c3CN(c3ccc(C(=O)N(C)C)cc3)C[C@@H]4C)cc2)ncc1N [Example 731, (S)-N-(4-(5-amino-4-methoxypyrimidin-2-yl)benzyl)-5-(4-(dimethylcarbamoyl)phenyl)-1-isopropyl-7-methyl-4,5,6,7-tetrahydro-1H-pyrazolo[4,3-c]pyridine-3-carboxamide] | 7.09 | 5.90 |  |
| CC(C)n1nc(C(=O)NCc2ccc(-c3cnn(C)c3)cc2)c2c1[C@@H](C)CN(c1ccc(C(=O)N(C)C)cc1)C2 [Example 732, (S)-5-(4-(dimethylcarbamoyl)phenyl)-1-isopropyl-7-methyl-N-(4-(1-methyl-1H-pyrazol-4-yl)benzyl)-4,5,6,7-tetrahydro-1H-pyrazolo[4,3-c]pyridine-3-carboxamide] | 7.06 | 5.51 |  |
| rel-(R or S)-5-(5-(dimethylcarbamoyl)pyridin-2-yl)-N-(4-(3,3-dimethylureido)benzyl)-1-methyl-7- [Example 390] | 7.41 |  | 6.98 |

Next, values leading:

| pEC50 [1] | pIC50 [2, 3] | pIC50 ([2]; IL-13 stimulated, 48 hours) | Molecule |
| --- | --- | --- | --- |
| 6.89 | 6.18 |  | Cc1coc(-c2ccc(CNC(=O)c3nn(C(C)C)c4c3CN(c3ccc(C(=O)N(C)C)cc3)C[C@@H]4C)cc2)n1 [Example 723, (S)-5-(4-(dimethylcarbamoyl)phenyl)-1-isopropyl-7-methyl-N-(4-(4-methyloxazol-2-yl)benzyl)-4,5,6,7-tetrahydro-1H-pyrazolo[4,3-c]pyridine-3-carboxamide] |
| 6.91 | 5.25 |  | Cc1cccc(-c2ccc(CNC(=O)c3nn(C(C)C)c4c3CN(c3ccc(C(=O)N(C)C)cc3)C[C@@H]4C)cc2)n1 [Example 726, (S)-5-(4-(dimethylcarbamoyl)phenyl)-1-isopropyl-7-methyl-N-(4-(6-methylpyridin-2-yl)benzyl)-4,5,6,7-tetrahydro-1H-pyrazolo[4,3-c]pyridine-3-carboxamide] |
| 6.64 | 5.38 |  | Cc1nccc(-c2ccc(CNC(=O)c3nn(C(C)C)c4c3CN(c3ccc(C(=O)N(C)C)cc3)C[C@@H]4C)cc2)n1 [Example 728, (S)-5-(4-(dimethylcarbamoyl)phenyl)-1-isopropyl-7-methyl-N-(4-(2-methylpyrimidin-4-yl)benzyl)-4,5,6,7-tetrahydro-1H-pyrazolo[4,3-c]pyridine-3-carboxamide] |
| 6.17 | 5.36 |  | Cc1csc(-c2ccc(CNC(=O)c3nn(C(C)C)c4c3CN(c3ccc(C(=O)N(C)C)cc3)C[C@@H]4C)cc2)n1 [Example 729, (S)-5-(4-(dimethylcarbamoyl)phenyl)-1-isopropyl-7-methyl-N-(4-(4-methylthiazol-2-yl)benzyl)-4,5,6,7-tetrahydro-1H-pyrazolo[4,3-c]pyridine-3-carboxamide] |
| < 5.00 | < 4.82 |  | Cc1ccnc(-c2ccc(CNC(=O)c3nn(C(C)C)c4c3CN(c3ccc(C(=O)N(C)C)cc3)C[C@@H]4C)cc2)n1 [Example 730, (S)-5-(4-(dimethylcarbamoyl)phenyl)-1-isopropyl-7-methyl-N-(4-(4-methylpyrimidin-2-yl)benzyl)-4,5,6,7-tetrahydro-1H-pyrazolo[4,3-c]pyridine-3-carboxamide] |
